Patent publication US6569622B1, “Nucleic acids encoding a protein conferring an inducible resistance to glycopeptide, particularly in gram-positive bacteria” (Institut Pasteur, priority 1992, dated 2003)
≈ marks a conversion by molar mass, not a printed value.

Columns and labels:
Test in all cases: MIC determination on agar (method of Steers et al.)
E. faecium = assay type: cell-based, Enterococcus faecium
Experimental: (§1) A brain-heart medium and agar (Difco Laboratories, Detroit, Mich.) were used. Sensitivity tests were performed on Mueller-Hinton agar (Diagnostics Pasteur, Marne LaCoquette, France). All of the incubations were performed at 37° C.
(§2) The disk diffusion test with disks containing 30 μg of vancomycin or 30 μg of teicoplanin (Diagnostics Pasteur) was used for the initial screening. The method of Steers et al. with 10^4 CFU per spot was used to determine the MIC of the antibiotics (Steers E. et al., Antibiot. Chemother. (Basel) 1959, 9: 307-11)

E. faecalis = assay type: cell-based, Enterococcus faecalis
Experimental: as §1, §2

E. rhusiopathiae = assay type: cell-based, Erysipelothrix rhusiopathiae
Experimental: as §1, §2

E. gallinarum = assay type: cell-based
Experimental: as §1, §2

E. casseliflavus = assay type: cell-based
Experimental: as §1, §2

[1] = tested on: Enterococcus spp. (susceptible); assay type: cell-based
Experimental: as §1, §2

Pediococcus spp. = assay type: cell-based
Experimental: as §1, §2

Lactobacillus spp. = assay type: cell-based
Experimental: as §1, §2

[2] = tested on: isolates of E. faecium and E. faecalis resistant to high concentrations of vancomycin; assay type: cell-based; settings: 15 isolates resistant to high concentrations of vancomycin, including V583-2 and UMH-1
Excerpt: Bacterial strains: 39 isolates of E. faecium (28 strains) and E. faecalis (11 strains) resistant to low and high concentrations of vancomycin and sensitive to teicoplanin were studied (Table II). Among these strains 24 isolates including E. faecalis V583 (Sahm D. et al., Antimicrob. Agents Chemother. 1989, 33: 1588-91) and E. faecium D366 (Gutmnann L. et al., Antimicrob. Agents Chemother. 1992, 36: 77-80) were resistant to low concentrations of vancomycin on the basis of a disk sensitivity test. […] The control strains were well-characterized strains of entercocci belonging to the phenotypes A and C and hybridizing with the probes VanA and VanC, respectively. In particular there are 6 clinical isolates of E. faecium highly resistant to vancomycin and to teicoplanin, including BM4147. The strains of E. gallinarum including […] belonging to class C were also used as controls. Strains of E. casseliflavus are also used as controls, including the strain ATCC 25788, which are isolates intrinsically resistant to low levels of vancomycin and sensitive to teicoplanin (Leclercq R. et al., Antimicrob. Agents Chemother. 1992, 36: 2005-8).
A brain-heart medium and agar (Difco Laboratories, Detroit, Mich.) were used. Sensitivity tests were performed on Mueller-Hinton agar (Diagnostics Pasteur, Marne LaCoquette, France). All of the incubations were performed at 37° C. […]

Leuconostoc. sp. = assay type: cell-based, Leuconostoc mesenteroides
Experimental: as §1, §2

[3] = E. gallinarum(3), phenotypic class C, genotypic class C

`CN[C@H](CC(C)C)C(=O)N[C@H]1C(=O)N[C@@H](CC(N)=O)C(=O)N[C@H]2C(=O)N[C@H]3C(=O)N[C@H](C(=O)N[C@H](C(=O)O)c4cc(O)cc(O)c4-c4cc3ccc4O)[C@H](O)c3ccc(c(Cl)c3)Oc3cc2cc(c3O[C@@H]2O[C@H](CO)[C@@H](O)[C@H](O)[C@H]2O[C@H]2C[C@](C)(N)[C@H](O)[C@H](C)O2)Oc2ccc(cc2Cl)[C@H]1O` [Vancomycin, vancomycin] was tested. Which MIC (E. faecium; Enterococcus faecium, ATCC19434, E. faecium strain ATCC 19434) did it give?
The MIC was 1 µg/mL (≈ 0.69 µM).

And the MIC (E. faecium; Enterococcus faecium, E. faecium strain BM4147)?
The MIC was 1020 µg/mL (≈ 707 µM).

And the MIC (E. faecium; Enterococcus faecium, E. faecium strain D366)?
Its MIC is 32 µg/mL (≈ 22.1 µM).

What about the MIC (E. faecium; Enterococcus faecium, E. faecium strain MT10R) of the same molecule?
Its MIC is 2 µg/mL (≈ 1.38 µM).

What about the MIC (E. faecium; Enterococcus faecium, E. faecium(28), phenotypic class B, genotypic class B) of the same molecule?
Its MIC is 4 to 256 µg/mL (≈ 2.76 to 177 µM).

And the MIC (E. faecalis; Enterococcus faecalis, ATCC29212, E. faecalis strain ATCC 29212)?
Its MIC is 2 µg/mL (≈ 1.38 µM).

What about the MIC (E. faecalis; Enterococcus faecalis, E. faecalis strain UMH-1) of the same molecule?
The MIC was 1020 µg/mL (≈ 707 µM).

And the MIC (E. faecalis; Enterococcus faecalis, E. faecalis strain V583)?
The MIC was 64 µg/mL (≈ 44.2 µM).

And the MIC (E. faecalis; Enterococcus faecalis, E. faecalis strain V583-2)?
The MIC was 1020 µg/mL (≈ 707 µM).

And the MIC (E. faecalis; Enterococcus faecalis, E. faecalis strain V583-C1)?
Its MIC is 2 µg/mL (≈ 1.38 µM).

What about the MIC (E. faecalis; Enterococcus faecalis, E. faecalis(11), phenotypic class B, genotypic class B) of the same molecule?
Its MIC is 4 to 1020 µg/mL (≈ 2.76 to 707 µM).

What about the MIC (E. rhusiopathiae; Erysipelothrix rhusiopathiae) of the same molecule?
The MIC was greater than 1 µg/mL.

What about the MIC (E. gallinarum; [3]) of the same molecule?
The MIC was 8 µg/mL (≈ 5.52 µM).

And the MIC (E. gallinarum; Enterococcus gallinarum, GALLINARUM)?
Its MIC is 8 µg/mL (≈ 5.52 µM).

What about the MIC (E. casseliflavus; Enterococcus casseliflavus, E. casseliflavus (Table I, strain not given)) of the same molecule?
The MIC was 8 µg/mL (≈ 5.52 µM).

And the MIC (E. casseliflavus; Enterococcus casseliflavus, E. casseliflavus(2), phenotypic class C, genotype NC)?
The MIC was 4 to 8 µg/mL (≈ 2.76 to 5.52 µM).

And the MIC ([1]; Enterococcus)?
The MIC was 0.5 to 2 µg/mL (≈ 0.345 to 1.38 µM).

And the MIC (Pediococcus spp.; Pediococcus)?
Its MIC is greater than 1 µg/mL.

And the MIC (Lactobacillus spp.; Lactobacillus)?
The MIC was greater than 1 µg/mL.

What about the MIC [2] of the same molecule?
Its MIC is no less than 128 µg/mL.

What about the MIC (Leuconostoc. sp.; Leuconostoc mesenteroides) of the same molecule?
The MIC was greater than 1 µg/mL.

teicoplanin was tested. Which MIC (E. faecium; E. faecium strain ATCC 19434) did it give?
The MIC was 1 µg/mL.

And the MIC (E. faecium; E. faecium strain BM4147)?
The MIC was 512 µg/mL.

What about the MIC (E. faecium; E. faecium strain D366) of the same molecule?
Its MIC is 0.5 µg/mL.

What about the MIC (E. faecium; E. faecium strain MT10R) of the same molecule?
The MIC was 0.25 µg/mL.

And the MIC (E. faecium; E. faecium(28), phenotypic class B, genotypic class B)?
The MIC was 0.5 to 1 µg/mL.

And the MIC (E. faecalis; E. faecalis strain ATCC 29212)?
The MIC was 0.5 µg/mL.

And the MIC (E. faecalis; E. faecalis strain UMH-1)?
The MIC was 1.0 µg/mL.

And the MIC (E. faecalis; E. faecalis strain V583)?
Its MIC is 0.5 µg/mL.

What about the MIC (E. faecalis; E. faecalis strain V583-2) of the same molecule?
The MIC was 1.0 µg/mL.

And the MIC (E. faecalis; E. faecalis strain V583-C1)?
Its MIC is 0.5 µg/mL.

What about the MIC (E. faecalis; E. faecalis(11), phenotypic class B, genotypic class B) of the same molecule?
Its MIC is 0.5 to 1 µg/mL.

And the MIC (E. rhusiopathiae; E. rhusiopathiae(1))?
Its MIC is greater than 1.000 µg/mL.

What about the MIC (E. gallinarum; E. gallinarum strain BM4174) of the same molecule?
The MIC was 1 µg/mL.

What about the MIC (E. gallinarum; [3]) of the same molecule?
Its MIC is 1 µg/mL.

What about the MIC (E. casseliflavus; E. casseliflavus (Table I, strain not given)) of the same molecule?
The MIC was 1 µg/mL.

And the MIC (E. casseliflavus; E. casseliflavus(2), phenotypic class C, genotype NC)?
The MIC was 0.5 to 1 µg/mL.

And the MIC ([1]; Enterococcus spp.(10), phenotypic class Susceptible)?
The MIC was 0.25 µg/mL.

And the MIC (Pediococcus spp.; Pediococcus spp.(2))?
Its MIC is greater than 1.000 µg/mL.

And the MIC (Lactobacillus spp.; Lactobacillus spp.(8))?
The MIC was greater than 1.000 µg/mL.

And the MIC (Leuconostoc. sp.; Leuconostoc. sp.(1))?
The MIC was greater than 1.000 µg/mL.
